Patent US20240409558A1, “IRREVERSIBLE INHIBITORS OF KRAS” (BIOMEA FUSION, INC., priority 2021, published 2024)
Where two headings read alike, the source gives them in different places.

System: human KRAS G12C mutated cell line MIA PaCa-2
Assay: Inhibition of proliferation of MIA PaCa-2 cells (CellTiter-Glo, 7 day)
Assay type: cell-based
Settings: 168 h
Text: The present example evaluates the ability of compounds provided herein to inhibit proliferation of KRAS mutant cells.
The proliferation inhibitory effect was investigated in the human KRAS G12C mutated cell line MIA PaCa-2 (Yunis et al., 1977, Int. J. Cancer 19(1):128-135; ATCC catalog no. CRL-1420). Cells were maintained in RPMI-1640 medium (ThermoFisher catalog no. 61870036) supplemented with 10% of Heat Inactivated FBS (ThermoFisher catalog no. A31605) and 1% Pen-Strep (ThermoFisher catalog no. 10378016) and cultured at 37° C. in a humidified incubator with 5% CO2. Cell lines were grown by adhering to culture flasks, and the cells were maintained in a range 70%-80% confluency.
ATP is present in all metabolically active cells and is considered as a marker for cell viability and proliferation. Metabolic cell activity was determined using the CellTiter-Glo kit (Promega catalog no. G7572), an ATP monitoring system based on the production of luminescence by the reaction of ATP with added UltraGlo® recombinant luciferase (Kawano et al., 2016, PLOS One, 8; 11(7):e0158888), according to the supplier's experimental recommendations. The assay was based on a 96 well plate format.
Test compounds were dissolved at 10 mM in DMSO (Sigma catalog no. D8418; purity >99.9%) and stored at −20° C. Eight concentrations of test compound were assessed in duplicate in an individual test occasion in parallel in the selected cell lines. MRTX-849 and AMG-510 were used as reference compounds and tested in duplicate at eight concentrations. 100% of proliferation is represented by the untreated cells (0.2% DMSO).
(§1) On the day of the experiment (TO), cells were detached with TrypLE (ThermoFisher catalog no. 12604054) and quantified using the Vi-CELL XR Cell Viability (Beckman Coulter) analyzer and diluted with fresh medium to obtain the cell density of about 1000 cells per 200 μL medium. 200 μL of cell suspension were added into wells in the 96 well plate.
After 2 hours from seeding cells, compounds were added using a D300e compound dispenser (Tecan Trading AG) at desired concentrations with shaking between each compound dispensed. Cell plates containing 200 μL/well were incubated at 37° C. in a humidified incubator with 5% CO2.
On day T3, 150 μL of growth media per well were removed from plates containing the samples, 150 uL fresh growth media were added to each well, and fresh compounds were added using a D300e compound dispenser (Tecan Trading AG) at desired concentrations with shaking between each compound dispensed. Cell plates containing 200 uL/well were incubated at 37° C. in a humidified incubator with 5% CO2. On day T7 plates containing the samples were equilibrated at room temperature for approximately 15 min, and then 40 μL/well of the Promega CellTiterGlo® reagent was added. Contents were mixed for 30 minutes on an orbital shaker to induce cell lysis. Luminescence was read using a Synergy Neo 2 (Agilent Technologies.
Data was expressed as % of inhibition compared to the 0.2% DMSO negative control, and is calculated as follows: % inhibition=100−[(RLU sample)×100/(RLU controls*)], where * indicates the average for 0.2% DMSO. […]
as §1, with “12604054),” for “12604054) and”, “resuspended in” for “diluted with”, “at a” for “to obtain the”, “to each well of a” for “into wells in the”
Two hours after seeding cells, compounds were added at desired concentrations using a D300e compound dispenser (Tecan Trading AG) with shaking after each compound addition. Assay plates were incubated at 37° C. in a humidified incubator with 5% CO2.
On day 3 (T3) 150 μL of medium from assay plates were removed. 150 μL fresh medium and compounds were added at desired concentrations using a D300e compound dispenser (Tecan Trading AG) with shaking after each compound addition. […]

[1] = Table 3, 7 day, mean, read-out: MIA PaCa-2 IC50 (μM) 7 day Mean
[2] = Table 2, CellTiter-Glo luminescence read on day 7, read-out: MIA PaCa-2 IC50

Structure (SMILES)	IC50 [1]	further results
C=CC(=O)N1CCC(c2nc(OC[C@@]34CCCN3C[C@H](F)C4)nc3c(F)c(-c4cc(O)cc5ccc(F)c(F)c45)ncc23)C[C@H]1C (stereo in doubt) [Compound 334, 1-[(2R)-4-[7-(7,8-difluoro-3-hydroxy-1-naphthyl)-8-fluoro-2-[[(2R,8S)-2-fluoro-1,2,3,5,6,7-hexahydropyrrolizin-8-yl]methoxy]pyrido[4,3-d]pyrimidin-4-y1]-2-methyl-1-piperidyl]prop-2-en-1-one]	0.00443 µM	–
C=CC(=O)N1[C@@H]2CC[C@H]1CN(c1nc(OC[C@@]34CCCN3C[C@H](F)C4)nc3c(F)c(-c4cc(O)cc(Cl)c4C4CC4)ccc13)C2 [Compound 1, 1-((1R,5S)-3-(7-(3-chloro-2-cyclopropyl-5-hydroxyphenyl)-8-fluoro-2-(((2R,7aS)-2-fluorotetrahydro-1H-pyrrolizin-7a(5H)-yl)methoxy)quinazolin-4-yl)-3,8-diazabicyclo[3.2.1]octan-8-yl)prop-2-en-1-one]	–	IC50 (Table 1, CellTiter-Glo luminescence read on day 7, read-out: MIA PaCa-2 IC50): 0.000742 µM
Oc1cc(Cl)c(C2CC2)c(-c2ccc3c(N4C[C@H]5CC[C@@H](C4)N5)nc(OC[C@@]45CCCN4C[C@H](F)C5)nc3c2F)c1 [Compound 201, 3-(4-((1R,5S)-3,8-diazabicyclo[3.2.1]octan-3-yl)-8-fluoro-2-(((2R,7aS)-2-fluorotetrahydro-1H-pyrrolizin-7a(5H)-yl)methoxy)quinazolin-7-yl)-5-chloro-4-cyclopropylphenol]	–	IC50 [2]: 0.358 µM
Oc1cc(Cl)c(C2CC2)c(-c2ccc3c(C4CC5CCC(C4)N5)nc(OCC45CCCN4CC(F)C5)nc3c2F)c1 (centres unmarked) [Compound 205]	–	IC50 [2]: 0.358 µM
C=CC(=O)N1C2CCC1CN(c1nc(OCC34CCCN3CCC4)nc3c(F)c(-c4cccc(Cl)c4C4CC4)ncc13)C2 [Compound 301, 1-[3-[7-(3-chloro-2-cyclopropyl-phenyl)-8-fluoro-2-(1,2,3,5,6,7-hexahydropyrrolizin-8-ylmethoxy)pyrido[4,3-d]pyrimidin-4-yl]-3,8-diazabicyclo[3.2.1]octan-8-yl]prop-2-en-1-one]	0.16 µM	–
C=CC(=O)N1C2CCC1CN(c1nc(OC[C@@]34CCCN3C[C@H](F)C4)nc3c(F)c(-c4cc(O)cc(Cl)c4C4CC4)ncc13)C2 [Compound 302, 1-[3-[7-(3-chloro-2-cyclopropyl-5-hydroxy-phenyl)-8-fluoro-2-[[(2R,8S)-2-fluoro-1,2,3,5,6,7-hexahydropyrrolizin-8-yl]methoxy]pyrido[4,3-d]pyrimidin-4-yl]-3,8-diazabicyclo[3.2.1]octan-8-yl]prop-2-en-1-one]	0.000287 µM	–
C#Cc1c(F)ccc2cccc(-c3ncc4c(N5CC6CCC(C5)N6C(=O)C=C)nc(OCC56CCCN5CCC6)nc4c3F)c12 [Compound 303, 1-[3-[7-(8-ethynyl-7-fluoro-1-naphthyl)-8-fluoro-2-(1,2,3,5,6,7-hexahydropyrrolizin-8-ylmethoxy)pyrido[4,3-d]pyrimidin-4-yl]-3,8-diazabicyclo[3.2.1]octan-8-yl]prop-2-en-1-one]	0.0006 µM	–
C=CC(=O)N1C2CCC1CN(c1nc(OC[C@@]34CCCN3C[C@H](F)C4)nc3c(F)c(-c4c(C)c(Cl)cc5[nH]ncc45)ncc13)C2 [Compound 304, 1-[3-[7-(6-chloro-5-methyl-1H-indazol-4-yl)-8-fluoro-2-[[(2R,8S)-2-fluoro-1,2,3,5,6,7-hexahydropyrrolizin-8-yl]methoxy]pyrido[4,3-d]pyrimidin-4-yl]-3,8-diazabicyclo[3.2.1]octan-8-yl]prop-2-en-1-one]	0.017 µM	–
C=CC(=O)N1C2CCC1CN(c1nc(OC[C@@]34CCCN3C[C@H](F)C4)nc3c(F)c(-c4cc(O)cc5cccc(Cl)c45)ncc13)C2 [Compound 305, 1-[3-[7-(8-chloro-3-hydroxy-1-naphthyl)-8-fluoro-2-[[(2R,8S)-2-fluoro-1,2,3,5,6,7-hexahydropyrrolizin-8-yl]methoxy]pyrido[4,3-d]pyrimidin-4-y1]-3,8-diazabicyclo[3.2.1]octan-8-yl]prop-2-en-1-one]	0.0023 µM	–
C=CC(=O)N1C2CCC1CN(c1nc(OC[C@@]34CCCN3C[C@H](F)C4)nc3c(F)c(-c4cc(O)cc5ccc(F)c(F)c45)ncc13)C2 [Compound 306, 1-[3-[7-(7,8-difluoro-3-hydroxy-1-naphthyl)-8-fluoro-2-[[(2R,8S)-2-fluoro-1,2,3,5,6,7-hexahydropyrrolizin-8-yl]methoxy]pyrido[4,3-d]pyrimidin-4-yl]-3,8-diazabicyclo[3.2.1]octan-8-yl]prop-2-en-1-one]	0.0015 µM	–
C=C(F)C(=O)N1C2CCC1CN(c1nc(OC[C@@]34CCCN3C[C@H](F)C4)nc3c(F)c(-c4cc(O)cc(Cl)c4C4CC4)ccc13)C2 [Compound 307, 1-[3-[7-(3-chloro-2-cyclopropyl-5-hydroxy-phenyl)-8-fluoro-2-[[(2R,8S)-2-fluoro-1,2,3,5,6,7-hexahydropyrrolizin-8-yl]methoxy]quinazolin-4-yl]-3,8-diazabicyclo[3.2.1]octan-8-yl]-2-fluoro-prop-2-en-1-one]	0.126 µM	–
C=CC(=O)N1C2CCC1CN(c1nc(OC[C@@]34CCCN3C[C@H](F)C4)nc3cc(-c4cc(O)cc(Cl)c4C4CC4)c(F)cc13)C2 [Compound 308, 1-[3-[7-(3-chloro-2-cyclopropyl-5-hydroxy-phenyl)-6-fluoro-2-[[(2R,8S)-2-fluoro-1,2,3,5,6,7-hexahydropyrrolizin-8-yl]methoxy]quinazolin-4-y1]-3,8-diazabicyclo[3.2.1]octan-8-yl]prop-2-en-1-one]	0.0282 µM	–
C=CC(=O)N1C2CCC1CN(c1nc(OC[C@@]34CCCN3C[C@H](F)C4)nc3cc(-c4cc(O)cc(Cl)c4C4CC4)cnc13)C2 [Compound 309]	> 1 µM	–
C=CC(=O)N1CCC2(c3nc(OC[C@@]45CCCN4C[C@H](F)C5)nc4c(F)c(-c5cc(O)cc6ccccc56)ncc34)CC2C1 (stereo partly drawn) [Compound 310, 1-[6-[8-fluoro-2-[[(2R,8S)-2-fluoro-1,2,3,5,6,7-hexahydropyrrolizin-8-yl]methoxy]-7-(3-hydroxy-1-naphthyl)pyrido[4,3-d]pyrimidin-4-yl]-3-azabicyclo[4.1.0]heptan-3-yl]prop-2-en-1-one]	> 1 µM	–
C=CC(=O)N1C[C@H]2C[C@@H]1CN2c1nc(OC[C@@]23CCCN2C[C@H](F)C3)nc2c(F)c(-c3cc(O)cc(Cl)c3C3CC3)ccc12 [Compound 311, 1-[(1R,4R)-5-[7-(3-chloro-2-cyclopropyl-5-hydroxy-phenyl)-8-fluoro-2-[[(2R,8S)-2-fluoro-1,2,3,5,6,7-hexahydropyrrolizin-8-yl]methoxy]quinazolin-4-yl]-2,5-diazabicyclo[2.2.1]heptan-2-yl]prop-2-en-1-one]	> 1 µM	–
C=CC(=O)N1C[C@H]2C[C@@H]1CN2c1nc(OC[C@@]23CCCN2C[C@H](F)C3)nc2cc(-c3cc(O)cc(Cl)c3C3CC3)cnc12 [Compound 312, 1-[(1R,4R)-5-[7-(3-chloro-2-cyclopropyl-5-hydroxy-phenyl)-2-[[(2R,8S)-2-fluoro-1,2,3,5,6,7-hexahydropyrrolizin-8-yl]methoxy]pyrido[3,2-d]pyrimidin-4-y1]-2,5-diazabicyclo[2.2.1]heptan-2-yl]prop-2-en-1-one]	> 1 µM	–
C=CC(=O)N1CCN(c2nc(OC[C@@]34CCCN3C[C@H](F)C4)nc3c(F)c(-c4cc(O)cc(Cl)c4C4CC4)ccc23)CC12CC2 [Compound 313, 1-[7-[7-(3-chloro-2-cyclopropyl-5-hydroxy-phenyl)-8-fluoro-2-[[(2R,8S)-2-fluoro-1,2,3,5,6,7-hexahydropyrrolizin-8-yl]methoxy]quinazolin-4-yl]-4,7-diazaspiro[2.5]octan-4-yl]prop-2-en-1-one]	0.0373 µM	–
